Assay results taken from ChEMBL document CHEMBL3860083, “Tautomeric and non-tautomeric N-substituted 2-iminobenzimidazolines as new lead compounds for the design of anti-influenza drugs: An in vitro study” (Bioorg Med Chem, 2016).

Key:
[1] = Selectivity index, ratio of CC50 for MDCK cells to IC50 for Influenza A virus (A/California/07/09(H1N1)) pdm09; format: functional
[2] = Cytotoxicity against MDCK cells assessed as increase in cell death after 48 hrs by MTT assay; format: toxicity, cell-based, Canis lupus familiaris; conditions: dog
[3] = Antiviral activity against Influenza A virus (A/California/07/09(H1N1))pdm09 infected in MDCK cells assessed as decrease in virus production preincubated for 1 hr with cells followed by viral infection measured after 24 hrs by hemagglutination assay; format: functional, cell-based, Influenza A virus (A/California/07/2009(H1N1))
[4] = system: Guanarito virus; assay: Antiviral activity against Guanarito virus; format: functional; conditions: Mammarenavirus guanaritoense
[5] = system: Junin virus; assay: Antiviral activity against Junin virus; format: functional; conditions: Mammarenavirus juninense
[6] = system: Machupo mammarenavirus; assay: Antiviral activity against Machupo virus; format: functional; conditions: Mammarenavirus machupoense
[7] = system: Sabia virus; assay: Antiviral activity against Sabia virus; format: functional
[8] = system: Lassa virus; assay: Antiviral activity against Lassa virus; format: functional; conditions: Mammarenavirus lassaense

| Structure (SMILES) | Ratio CC50/IC50 [1] | CC50 at 48 h [2] | IC50 [3] | IC50 [4] | IC50 [5] | IC50 [6] | IC50 [7] | IC50 [8] |
| --- | --- | --- | --- | --- | --- | --- | --- | --- |
| Cl.N=c1n(Cc2ccc(F)cc2)c2ccccc2n1Cc1ccc(Cl)c(Cl)c1 | 5 | 21.8 µM | 4.5 µM |  |  |  |  |  |
| O=C(/N=c1\[nH]c2ccccc2n1CCOc1ccc(F)cc1)c1ccc(Cl)cc1 | >7 | > 732 µM | 112 µM |  |  |  |  |  |
| COc1ccc(-n2cnc3cc(NCc4ccc(C)cc4)ccc32)cc1 |  |  |  | 0.0002 to 0.012 µM | 0.0002 to 0.012 µM | 0.0002 to 0.012 µM | 0.0002 to 0.012 µM | 0.0016 µM |
| Cl.N=c1n(CCOc2ccc(F)cc2)c2ccccc2n1CC(N)=O | 23 | 1260 µM | 54.8 µM |  |  |  |  |  |
| S=C(Nc1ccccc1)Nc1nc2ccccc2n1CCOc1ccccc1 | 1 | 25.8 µM | 25.8 µM |  |  |  |  |  |
| O=C(/N=c1\[nH]c2ccccc2n1CCOc1ccc(Cl)cc1)c1cccs1 | 8 | 2240 µM | 297 µM |  |  |  |  |  |
| COc1ccc(OCCn2/c(=N/C(=O)c3cccs3)[nH]c3ccccc32)cc1 | >6 | > 2540 µM | 450 µM |  |  |  |  |  |
| Br.Cc1ccc(OCCn2c(=N)n(Cc3ccc(Cl)c(Cl)c3)c3ccccc32)cc1 | 11 | 13.2 µM | 0.6 µM |  |  |  |  |  |
| Cl.N=c1n(CCO)c2ccccc2n1Cc1ccc(Cl)c(Cl)c1 | 83 | 202 µM | 2.4 µM |  |  |  |  |  |
| S=C(Nc1ccccc1)Nc1nc2ccccc2n1CCOc1ccc(Br)cc1 | <1 | 20.3 µM | > 21.4 µM |  |  |  |  |  |
| Br.C=CCn1c(=N)n(CCOc2ccc(C(C)(C)C)cc2)c2ccccc21 | 8 | 12.8 µM | 1.6 µM |  |  |  |  |  |
| Cc1ccc(OCCn2c(=N)n(CC(N)=O)c3ccccc32)cc1.Cl | 9 | 309 µM | 35.8 µM |  |  |  |  |  |
| Cl.N=c1n(CC(N)=O)c2ccccc2n1Cc1ccc(Cl)c(Cl)c1 | 28 | 196 µM | 7 µM |  |  |  |  |  |
| O=C(Nc1nc2ccccc2n1CCOc1ccc(Cl)cc1)c1ccco1 | 6 | 346 µM | 57.6 µM |  |  |  |  |  |
| CC(C)(C)c1ccc(C(=O)/N=c2\[nH]c3ccccc3n2CCOc2ccc(Br)cc2)cc1 | 54 | 2030 µM | 37.4 µM |  |  |  |  |  |
| O=C(/N=c1\[nH]c2ccccc2n1CCOc1ccc(F)cc1)c1ccc([N+](=O)[O-])cc1 | >5 | > 2550 µM | 543 µM |  |  |  |  |  |
| Cl.N=c1n(CO)c2ccccc2n1CCOc1ccc(Cl)cc1 | 9 | 40.8 µM | 4.6 µM |  |  |  |  |  |
| Cc1ccccc1OCCn1/c(=N/C(=O)c2cccs2)[nH]c2ccccc21 | 5 | 159 µM | 33.2 µM |  |  |  |  |  |
| CC(C)(C)c1ccc(OCCn2c(=N)n(CC(N)=O)c3ccccc32)cc1.Cl | 5 | 151 µM | 27.5 µM |  |  |  |  |  |
| O=C(Nc1nc2ccccc2n1CCOc1ccccc1)c1ccco1 | 50 | 2160 µM | 42.9 µM |  |  |  |  |  |
| O=C(/N=c1\[nH]c2ccccc2n1CCOc1cccc(Cl)c1)c1ccco1 | 63 | 820 µM | 13.1 µM |  |  |  |  |  |
| Br.C=CCn1c(=N)n(CCCOc2ccc(F)cc2)c2ccccc21 | 8 | 80.1 µM | 9.9 µM |  |  |  |  |  |
| O=C(/N=c1\[nH]c2ccccc2n1CCOc1ccc(Br)cc1)c1cccs1 | >7 | > 2260 µM | 317 µM |  |  |  |  |  |
